Tests used:
Type in all cases: biochemical
PAD1 = molecular target: T1, PAD1 (Homo sapiens, UniProt Q9ULC6); test: Inactivation kinetics, PAD1; details: for kinact/KI: a: single kobs determined, b: from a linear fit; for Fold PAD1 Selectivity: kinact/KI relative to least inhibited isozyme (1.0)
T1 construct: made in house
T1 sequence (Q9ULC6 1-663): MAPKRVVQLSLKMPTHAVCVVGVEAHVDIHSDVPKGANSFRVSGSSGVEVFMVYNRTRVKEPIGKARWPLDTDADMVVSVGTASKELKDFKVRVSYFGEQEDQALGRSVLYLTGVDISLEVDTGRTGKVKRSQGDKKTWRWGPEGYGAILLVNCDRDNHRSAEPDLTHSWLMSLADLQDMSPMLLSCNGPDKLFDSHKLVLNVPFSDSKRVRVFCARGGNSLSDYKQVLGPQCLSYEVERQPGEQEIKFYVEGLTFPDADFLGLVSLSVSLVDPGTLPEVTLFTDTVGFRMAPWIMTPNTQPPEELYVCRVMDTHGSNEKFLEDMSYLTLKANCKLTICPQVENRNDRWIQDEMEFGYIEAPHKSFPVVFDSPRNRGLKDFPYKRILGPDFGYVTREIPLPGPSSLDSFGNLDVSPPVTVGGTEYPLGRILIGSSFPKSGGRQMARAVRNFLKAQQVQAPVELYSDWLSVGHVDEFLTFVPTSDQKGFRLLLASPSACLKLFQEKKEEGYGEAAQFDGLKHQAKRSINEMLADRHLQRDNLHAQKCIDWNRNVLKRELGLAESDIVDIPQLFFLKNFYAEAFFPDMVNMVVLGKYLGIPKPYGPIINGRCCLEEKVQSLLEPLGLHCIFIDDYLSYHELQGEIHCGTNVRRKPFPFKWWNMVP
Summary of the method: (§1)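 PAD1, 2 or 4 (2.0 μM) or PAD3 (5.0 μM) preincubated at 37 °C with varying inhibitor in 50 mM HEPES, 10 mM CaCl2, 2 mM DTT, pH 7.6. Timed aliquots assayed 15 min with 10 mM BAEE (BAA for PAD3); citrulline quantified by COLDER.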

PAD3 = molecular target: T2, PAD3 (Homo sapiens, UniProt Q9ULW8); test: Inactivation kinetics, PAD3; details: for kinact/KI: a: single kobs determined; for Fold PAD3 Selectivity: kinact/KI relative to least inhibited isozyme (1.0)
T2 construct: made in house
T2 sequence (Q9ULW8 1-664): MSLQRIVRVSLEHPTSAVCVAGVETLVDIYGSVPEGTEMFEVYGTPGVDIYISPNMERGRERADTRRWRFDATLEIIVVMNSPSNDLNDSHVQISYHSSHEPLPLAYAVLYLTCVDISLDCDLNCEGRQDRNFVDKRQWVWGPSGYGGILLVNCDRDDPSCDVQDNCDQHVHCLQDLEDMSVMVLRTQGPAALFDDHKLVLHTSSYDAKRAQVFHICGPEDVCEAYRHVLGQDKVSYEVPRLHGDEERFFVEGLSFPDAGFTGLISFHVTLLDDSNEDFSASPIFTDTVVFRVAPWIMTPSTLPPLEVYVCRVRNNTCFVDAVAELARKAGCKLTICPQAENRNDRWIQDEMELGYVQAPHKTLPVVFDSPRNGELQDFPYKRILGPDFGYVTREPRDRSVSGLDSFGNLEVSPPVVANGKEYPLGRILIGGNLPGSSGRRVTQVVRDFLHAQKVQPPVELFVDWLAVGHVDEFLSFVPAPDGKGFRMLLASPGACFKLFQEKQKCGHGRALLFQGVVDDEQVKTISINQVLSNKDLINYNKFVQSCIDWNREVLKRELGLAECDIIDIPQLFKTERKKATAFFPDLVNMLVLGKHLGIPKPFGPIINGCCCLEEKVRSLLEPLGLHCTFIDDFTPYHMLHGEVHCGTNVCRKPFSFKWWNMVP
Summary of the method: as §1

PAD2 = molecular target: T3, PAD2 (Homo sapiens, UniProt Q9Y2J8); test: Inactivation kinetics, PAD2; details: for Ki / kinact: PAD2, table footnote; for kinact/KI: a: single kobs determined, b: from a linear fit, other footnotes: from kinact and KI; for Fold PAD2 Selectivity: kinact/KI relative to least inhibited isozyme (1.0)
T3 construct: made in house
Summary of the method: as §1

PAD4 = molecular target: T4, PAD4 (Homo sapiens, UniProt Q9UM07); test: Inactivation kinetics, PAD4; details: for kinact/KI: a: single kobs determined, b: from a linear fit; for Fold PAD4 Selectivity: kinact/KI relative to least inhibited isozyme (1.0)
T4 construct: made in house
Summary of the method: as §1

T3 sequence (Q9Y2J8 whole entry): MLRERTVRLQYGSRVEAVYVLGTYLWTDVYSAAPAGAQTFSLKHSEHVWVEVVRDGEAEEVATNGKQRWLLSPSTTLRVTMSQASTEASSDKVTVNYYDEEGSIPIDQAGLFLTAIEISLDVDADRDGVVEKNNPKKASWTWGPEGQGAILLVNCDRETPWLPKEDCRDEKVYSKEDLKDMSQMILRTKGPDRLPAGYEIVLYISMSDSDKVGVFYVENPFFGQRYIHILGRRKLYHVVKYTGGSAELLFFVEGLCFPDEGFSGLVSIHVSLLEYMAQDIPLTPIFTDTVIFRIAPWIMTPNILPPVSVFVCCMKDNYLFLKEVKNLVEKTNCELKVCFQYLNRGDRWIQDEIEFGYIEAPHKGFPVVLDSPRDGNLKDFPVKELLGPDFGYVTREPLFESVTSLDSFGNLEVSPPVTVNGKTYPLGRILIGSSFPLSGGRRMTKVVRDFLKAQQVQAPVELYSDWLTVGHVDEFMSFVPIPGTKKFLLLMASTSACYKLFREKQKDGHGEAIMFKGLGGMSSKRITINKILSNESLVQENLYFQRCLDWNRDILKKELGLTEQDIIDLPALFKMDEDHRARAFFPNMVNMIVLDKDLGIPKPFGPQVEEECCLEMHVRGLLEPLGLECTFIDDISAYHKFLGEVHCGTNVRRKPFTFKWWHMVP
T4 sequence (Q9UM07 whole entry): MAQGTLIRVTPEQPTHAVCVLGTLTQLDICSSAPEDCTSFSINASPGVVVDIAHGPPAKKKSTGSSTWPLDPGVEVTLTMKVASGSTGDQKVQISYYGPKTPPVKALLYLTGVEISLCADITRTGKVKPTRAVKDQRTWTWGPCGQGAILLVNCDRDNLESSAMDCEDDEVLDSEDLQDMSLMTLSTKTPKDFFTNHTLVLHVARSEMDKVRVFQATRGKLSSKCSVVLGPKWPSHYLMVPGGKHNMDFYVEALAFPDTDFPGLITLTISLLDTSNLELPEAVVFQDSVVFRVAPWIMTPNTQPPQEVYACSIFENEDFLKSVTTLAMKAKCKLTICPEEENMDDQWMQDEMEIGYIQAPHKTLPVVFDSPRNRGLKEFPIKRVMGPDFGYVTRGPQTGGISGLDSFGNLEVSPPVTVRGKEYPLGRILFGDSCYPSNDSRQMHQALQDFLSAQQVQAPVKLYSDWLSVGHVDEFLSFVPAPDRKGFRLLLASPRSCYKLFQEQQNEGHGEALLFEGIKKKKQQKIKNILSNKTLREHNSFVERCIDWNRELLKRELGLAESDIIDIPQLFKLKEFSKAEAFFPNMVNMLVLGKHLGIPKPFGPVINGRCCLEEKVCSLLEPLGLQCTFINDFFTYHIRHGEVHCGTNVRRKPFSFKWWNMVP

| kinact/KI (PAD1) [M⁻¹ s⁻¹] | Fold PAD1 Selectivity (PAD1) [fold] | kinact/KI (PAD3) [M⁻¹ s⁻¹] | Fold PAD3 Selectivity (PAD3) [fold] | Ki (PAD2) [µM] | kinact (PAD2) [s⁻¹] | kinact/KI (PAD2) [M⁻¹ s⁻¹] | Fold PAD2 Selectivity (PAD2) [fold] | kinact/KI (PAD4) [M⁻¹ s⁻¹] | Fold PAD4 Selectivity (PAD4) [fold] | SMILES |
| --- | --- | --- | --- | --- | --- | --- | --- | --- | --- | --- |
| 1180 | 16 | 72 | 1.0 | 5.3 | 0.0323 | 6090 | 85 | 71.7 | 1.0 | CCN1Cc2cccc(C(=O)N[C@@H](CCCNC(=N)CF)c3nc4c(OC)cccc4n3C)c2C1=O [Compound 8k, N1-(2-ethyl-3-oxoisoindoline)benzoyl-N5-(2-fluoro-1-iminoethyl)-1-(4-methoxy-1-methyl-benzo[d]imidazol-2-yl)-L-ornithine] |
| 963 | 3.9 | 247 | 1.0 |  |  | 1240 | 5.0 | 323 | 1.3 | CCN1Cc2cccc(C(=O)N[C@@H](CCCNC(=N)CCl)c3nc4c(OC)cccc4n3C)c2C1=O [Compound 8l, N1-(2-ethyl-3-oxoisoindoline)benzoyl-N5-(2-chloro-1-iminoethyl)-1-(4-methoxy-1-methyl-benzo[d]imidazol-2-yl)-L-ornithine] |
| 497 | 8.9 | 57.8 | 1.0 |  |  | 1430 | 26 | 55.8 | 1.0 | CCOc1cccc2c1nc([C@H](CCCNC(=N)CF)NC(=O)c1cccc3c1C(=O)N(CC)C3)n2C [Compound 8m, N1-(2-ethyl-3-oxoisoindoline)benzoyl-N5-(2-fluoro-1-iminoethyl)-1-(4-ethoxy-1-methyl-benzo[d]imidazol-2-yl)-L-ornithine] |
| 302 | 12 | 138 | 5.5 |  |  | 1090 | 43 | 25.2 | 1.0 | CCOc1cccc2c1nc([C@H](CCCNC(=N)CCl)NC(=O)c1cccc3c1C(=O)N(CC)C3)n2C [Compound 8n, N1-(2-ethyl-3-oxoisoindoline)benzoyl-N5-(2chloro-1-iminoethyl)-1-(4-ethoxy-1-methyl-benzo[d]imidazol-2-yl)-L-ornithine] |
| 842 | 47 | 17.8 | 1.0 | 18.7 | 0.0417 | 2230 | 125 | 68.3 | 3.8 | CCN1Cc2cccc(C(=O)N[C@@H](CCCNC(=N)CF)c3nc4cc(OC)ccc4n3C)c2C1=O [Compound 8o, N1-(2-ethyl-3-oxoisoindoline)benzoyl-N5-(2-fluoro-1-iminoethyl)-1-(5-methoxy-1-methyl-benzo[d]imidazol-2-yl)-L-ornithine] |
| 1180 | 37 | 296 | 9.3 |  |  | 1020 | 32 | 31.7 | 1.0 | CCN1Cc2cccc(C(=O)N[C@@H](CCCNC(=N)CCl)c3nc4cc(OC)ccc4n3C)c2C1=O [Compound 8p, N1-(2-ethyl-3-oxoisoindoline)benzoyl-N5-(2-chloro-1-iminoethyl)-1-(5-methoxy-1-methyl-benzo[d]imidazol-2-yl)-L-ornithine] |
| 858 | 32 | 26.7 | 1.0 |  |  | 1560 | 58 | 70 | 2.6 | COc1cccc2c1nc([C@H](CCCNC(=N)CF)NC(=O)c1cccc3c1C(=O)N(C(C)C)C3)n2C [Compound 8q] |
| 732 | 3.5 | 241 | 1.2 |  |  | 853 | 4.1 | 207 | 1.0 | COc1cccc2c1nc([C@H](CCCNC(=N)CCl)NC(=O)c1cccc3c1C(=O)N(C(C)C)C3)n2C [Compound 8r] |
| 766 | 38 | 20.3 | 1.0 |  |  | 1570 | 77 | 75 | 3.8 | COc1cccc2c1nc([C@H](CCCNC(=N)CF)NC(=O)c1cccc3c1C(=O)N(C1CC1)C3)n2C [Compound 8s] |
| 674 | 4.7 | 158 | 1.1 |  |  | 958 | 6.7 | 143 | 1.0 | COc1cccc2c1nc([C@H](CCCNC(=N)CCl)NC(=O)c1cccc3c1C(=O)N(C1CC1)C3)n2C [Compound 8t] |
| 652 | 28 | 23.3 | 2.0 | 23.4 | 0.0218 | 933 | 40 | 46.7 | 1.0 | CCN1Cc2cccc(C(=O)N[C@@H](CCCNC(=N)CF)c3nc4c(OC)cccc4n3CC)c2C1=O [Compound 8u, N1-(2-ethyl-3-oxoisoindoline)benzoyl-N5-(2-fluoro-1-iminoethyl)-1-(4-methoxy-1-ethyl-benzo[d]imidazol-2-yl)-L-ornithine] |
| 907 | 31 | 99.5 | 3.4 |  |  | 776 | 27 | 29.2 | 1.0 | CCN1Cc2cccc(C(=O)N[C@@H](CCCNC(=N)CCl)c3nc4c(OC)cccc4n3CC)c2C1=O [Compound 8v, N1-(2-ethyl-3-oxoisoindoline)benzoyl-N5-(2-chloro-1-iminoethyl)-1-(4-methoxy-1-ethyl-benzo[d]imidazol-2-yl)-L-ornithine] |
| 156 | 4.4 | 127 | 3.6 |  |  | 226 | 6.3 | 35.7 | 1.0 | CCN1Cc2cccc(C(=O)N[C@@H](CCCNC(=N)CF)c3nc4cc(OC)ccc4[nH]3)c2C1=O [Compound 8w, N1-(2-ethyl-3-oxoisoindoline)benzol-N5-(2-fluoro-1-iminoethyl)-1-(5-methoxy-1H-benzo[d]imidazol-2-yl)-L-ornithine] |
| 504 | 7.8 | 267 | 4.1 |  |  | 590 | 9.1 | 64.8 | 1.0 | CCN1Cc2cccc(C(=O)N[C@@H](CCCNC(=N)CCl)c3nc4cc(OC)ccc4[nH]3)c2C1=O [Compound 8x, N1-(2-ethyl-3-oxoisoindoline)benzoyl-N5-(2-chloro-1-iminoethyl)-1-(5-methoxy-1H-benzo[d]imidazol-2-yl)-L-ornithine] |
